# Data taken from patent US20130177627A1, “Growth inhibitory effects of nanoparticles containing triterpene glycosides or triterpenes” (priority 2011, published 2013).
# pIC50: −log10 of the molar value. Several values for one entry are separate records, joined by “and”; a condition that tells them apart may be missing. Equal entries are not always repeated. Entries after “also recorded” stand apart in the source; their conditions may differ. Where two headings read alike, the source gives them in different places.
# Assays:
# [1] = test system: HT29 human colon cancer cells; experiment: MTT growth inhibition assay on HT29 cells; format: cell-based
# MDA-MB-453 cells = experiment: Calcium release, cells preloaded with Fura-2, MDA-MB-453; format: cell-based, human; settings: MDA-MB-453, FIG. 7C
# Protocol: (§1) Methods: To reveal signaling pathways, human breast and colon cancer, as well as 293T(NK-kB), cells were treated with actein, alone or combined with specific inhibitors. Effects were measured using the MTT, luciferase, promoter and Western blot assays and histology. To assess effects on calcium release, cells were preloaded with the calcium sensitive dye Fura-2. To enhance bioavailability, actein was conjugated to nanoparticle liposomes.
# (§2) To elucidate the primary targets of actein, the effect of actein on calcium release was assessed. Cells were preloaded with the calcium sensitive dye Fura-2, which binds to calcium ions inside the cell. […] The effect was dose dependent in that it was stronger at 10 μM than at 10 nM in MCF7 breast cancer cells (FIG. 7A, B). […] The increase in calcium level was more sustained at the higher dose of actein (10 μM)) versus 10 nM and it continued longer for MDA-MB-453 than for MCF7 breast cancer cells (FIG. 7C).
# [2] = test system: MDA-MB-453 human breast cancer cells; experiment: MTT growth inhibition assay and combination index on MDA-MB-453 cells
# Protocol: MTT assay: the MTT (3-(4,5-dimethyl-2-thiazol)-2,5-diphenyl-2H tetrazolilum bromide) cell proliferation assay system (Roche Diagnostic, Mannheim, Germany) was used to determine the sensitivity of the various cell lines to agents. Cells were seeded at 1×10^4 cells/well in 96-well plates and allowed to attach for 24 h. The medium was replaced with fresh medium containing DMSO or compound. The cells were treated for 96 or 120 h, after which they were incubated with MTT reagents and the absorbance read at 650 and 575 nm.
# The results of the MTT assay were analyzed for possible synergistic effects using the median effect principle.
# [3] = test system: NF-kB promoter activity, p-Erk, p-Akt, cyclin D1; settings: later times (24 h), Einbond et al., 2008; cited from earlier work
# rat liver [4] = settings: cited from earlier work
# Na+/K+-ATPase = settings: Einbond et al., 2008, cited from earlier work
# 293T(null) cells = experiment: MTT growth inhibition assay on 293T(null) cells; format: cell-based; settings: Homo sapiens, HEK-293T, 96 h MTT, FIG. 10B
# [5] = test system: 293T(NF-κB) stably transformed cells; experiment: MTT growth inhibition assay on 293T(NF-κB) cells; format: cell-based; settings: Homo sapiens, HEK-293T, 96 h MTT, FIG. 10B
# IKKβ protein = experiment: Western blot analysis of IKKβ; format: cell-based; settings: 3 h, FIG. 10C
# Protocol: Cells were treated for increasing times, in media containing serum, with approximately the IC50 and twice the IC50 concentration, measured at 48 h, of actein. Western blot analysis was performed as previously described (Einbond et al., 2004). The membrane was incubated with the primary antibody IKKβ (Santa Cruz Biotechnology; Santa Cruz, Calif.); β-actin was used as a loading control.
# MCF7 cells = experiment: Calcium release, cells preloaded with Fura-2, MCF7; format: cell-based, human
# Protocol: as §1, §2
# [6] = test system: MDA-MB-453 breast cancer cells; experiment: Gene expression analysis in MDA-MB-453 cells; format: cell-based, human; settings: actein 20 μg/ml
# Protocol: Gene expression analysis was performed as previously described in vitro (Einbond et al., 2007)
# AffyLimma analysis: To identify individual alterations in gene expression induced by treatment, an unbiased informatics analysis was performed using the AffyLimmaGUI package in the open-source Bioconductor suite, as previously described [Einbond et al., 2007.]
# [7] = test system: NFκB transcription factor; experiment: NF-kB luciferase assay in 293T cells; format: cell-based; settings: 293T(NF-κB) cells
# Protocol: A luciferase reporter construct is integrated in 293T cells and is regulated by 6 copies of the NFκB response element. The assay to monitor the activity of NFκB transcription factor was performed as described in the manufacturer's instructions (Panomics, Freemont, Calif.).
# rat liver [8] = experiment: Gene expression in rat liver after actein; format: in vivo; settings: gene expression analysis
# [9] = test system: MCF7 human breast cancer cells; experiment: MTT growth inhibition assay on MCF7 cells; format: cell-based
# HT29 cells = experiment: Calcium release, cells preloaded with Fura-2, HT29; format: cell-based, human
# Protocol: as §1, §2
# [10] = test system: breast cancer cell growth; settings: Einbond et al., 2008; cited from earlier work
# [11] = Homo sapiens, MDA-MB-453, read-out: IC50, agent alone
compound,measurement,setting,value
heparin [reference compound],effect of heparin on the growth inhibitory effects of actein,[1]; HT29 colon cancer cells,partially blocked
same,effect of heparin on actein-induced calcium release,MDA-MB-453 cells,completely blocked
"C/C=C(/C)C(=O)O[C@H]1C(C)=C2[C@H]([C@@H]1OC(=O)CCCCCCC)[C@@](C)(OC(C)=O)C[C@H](OC(=O)CCC)[C@@]1(O)[C@H]2OC(=O)[C@@]1(C)O [thapsigargin, reference compound]",IC50,[2]; [11],0.018 µg/mL
same,viability at 0.01 µg/mL,"[2]; Homo sapiens, MDA-MB-453, read-out: percent viable cells",76.3%
CC(=O)O[C@@H]1C[C@@]23C[C@@]24CC[C@H](O[C@@H]2OC[C@@H](O)[C@H](O)[C@H]2O)C(C)(C)[C@@H]4CC[C@H]3[C@]2(C)C[C@@H]3O[C@]4(C[C@@H](C)[C@@H]3[C@@]12C)O[C@H](O)[C@@]1(C)O[C@@H]41 [actein],"level of NF-kB promoter activity, p-Erk, p-Akt and cyclin D1 protein",[3],reduced
same,IC50,"[1]; Homo sapiens, HT-29, 96 h, read-out: IC50, concentration that caused 50% inhibition of cell growth",~24 µg/mL and ~35 µM
same,viability at 10 µg/mL,"[1]; Homo sapiens, HT-29, HT29, actein 10 μg/ml alone or plus U0126 10 μM, read-out: percent viable cells",79.1%
same,IC50,"[1]; Homo sapiens, HT-29, HT29, actein alone or combined with MEK inhibitor U0126, FIG. 6C, read-out: IC50, growth inhibition",30 µg/mL
same,"genes erythropoietin, CYP2C and ATP synthase in rat liver","rat liver [4]; actein 35.7 mg/kg for 6 h, rat liver (Einbond et al., 2009)",downregulated
same,responses elicited in rat liver in vivo,rat liver [4]; rat liver,elicited stress and statin-associated responses
same,IC50,"[2]; Homo sapiens, MDA-MB-453, 96 h, read-out: IC50, concentration that caused 50% inhibition of cell growth",~8 µg/mL and ~12 µM
same,IC50,[2]; [11],25 µg/mL
same,IC50,"[2]; Homo sapiens, MDA-MB-453, read-out: IC50, growth inhibition",23 µg/mL
same,ability of actein to potentiate the effects of thapsigargin,"[2]; MDA-MB-453, FIG. 8A, B",enhanced the effects of thapsigargin
same,activity of the purified Na-K ATPase,Na+/K+-ATPase; 2007,inhibits the activity of the purified Na+/K+-ATPase; also recorded: inhibited the activity of the purified Na-K ATPase
same,combination with digitoxin on Na/K ATPase activity,Na+/K+-ATPase,synergized with digitoxin
same,IC50,293T(null) cells,75 µg/mL
same,IC50,[5],38 µg/mL
same,level of IKKβ protein,IKKβ protein,decreased the level of IKKβ protein in a dose dependent manner
same,"calcium release (action potential, Fura-2)","MCF7 cells; MCF7, actein 10 nM and 10 μM, FIG. 7A, B",induced an increase in action potential indicating calcium release
same,intracellular calcium (ion concentration) levels,"MCF7 cells; MCF7, actein 100 nM or 100 μM, FIG. 4",significantly increases intracellular calcium
same,time course of the calcium effect,MCF7 cells; MCF7 breast cancer cells,immediate and transient
same,"expression of the inflammatory pathway, cytokine-cytokine interaction","[6]; 6 h, up EPOR, down CXCR4, TRAF5, IL17RB",significantly modulated
same,expression of the MAPK signaling pathway,[6]; gene (up) HSPA1A,significantly altered
same,effect on 293T cells stably transformed with the NF-κB plasmid (FIG. 10A NF-kB activity),[7],did not increase cell proliferation
same,expression of the inflammatory gene CXCR4 in rat liver tissue,rat liver [8],reduced the expression
same,pIC50,"[9]; MCF7, 96 h, read-out: IC50, concentration that caused 50% inhibition of cell growth",~4.52
same,viability at 5 µg/mL,"[9]; MCF7, actein 5 μg/ml alone or plus U0126 10 μM, read-out: percent viable cells",79.2%
same,IC50,"[9]; MCF7, actein alone or combined with MEK inhibitor U0126, FIG. 6B, read-out: IC50, growth inhibition",20 µg/mL
same,"calcium release (action potential, Fura-2)",HT29 cells,induced an increase in action potential indicating calcium release
same,combination with digitoxin on breast cancer cell growth,[10],synergized with digitoxin
same,"calcium release (action potential, Fura-2)",MDA-MB-453 cells,induced an increase in action potential indicating calcium release
